Test results: PubChem BioAssay AID1745844 (Carcinogenic Potency Database (CPDB), 2022)
Calls of active or inactive are those of the source. No rule for the calls is given here.

Tested on: rodent lifetime carcinogenesis bioassay, tumor incidence TD50
Assay: chronic cancer bioassays in animals – CPDB, compiled studies (AID 1745844)
[1] = mouse, strain B6AKF1, females, oral dosing, site: lung, lesion: adenoma, dosed 76 weeks, study length 76 weeks
[2] = mouse, strain B6C3F1, males, oral dosing, site: lung, lesion: adenoma, dosed 76 weeks, study length 76 weeks

Structure (SMILES): O=NN(c1ccccc1)c1ccccc1
- TD50 (mouse, strain B6AKF1, females, oral dosing, site: any site (literature study), lesion: several types, types named in the paper, dosed 76 weeks, study length 76 weeks): 3260 mg/kg/day
- TD50 [1]: 1020 mg/kg/day
- carcinogen call (mouse, strain B6C3F1, females, in feed, site: any site (literature study), lesion: several types, types named in the paper, dosed 98 weeks, study length 101 weeks): negative (inactive)
- carcinogen call (mouse, strain B6C3F1, males, in feed, site: any site (literature study), lesion: several types, types named in the paper, dosed 101 weeks, study length 101 weeks): negative (inactive)
- TD50 (mouse, strain B6C3F1, males, oral dosing, site: any site (literature study), lesion: several types, types named in the paper, dosed 76 weeks, study length 76 weeks): 897 mg/kg/day
- TD50 (mouse, strain B6C3F1, males, oral dosing, site: liver, lesion: hepatoma, dosed 76 weeks, study length 76 weeks): 385 mg/kg/day
- TD50 [2]: 9670 mg/kg/day
- TD50 (rat, strain CB, males, i.p., site: liver, lesion: hepatoma, dosed 26 weeks, study length 100 weeks): 18.9 mg/kg/day (inactive)
- TD50 (rat, strain Fischer 344, females, in feed, site: any site (literature study), lesion: several types, types named in the paper, dosed 100 weeks, study length 100 weeks): 159 mg/kg/day
- TD50 (rat, strain Fischer 344, females, in feed, site: urinary bladder, lesion: transitional-cell carcinoma, dosed 100 weeks, study length 100 weeks): 116 mg/kg/day
- TD50 (rat, strain Fischer 344, males, in feed, site: all sites, lesion: fibroma, dosed 100 weeks, study length 100 weeks): 537 mg/kg/day
- TD50 (rat, strain Fischer 344, males, in feed, site: any site (literature study), lesion: several types, types named in the paper, dosed 100 weeks, study length 100 weeks): 136000 mg/kg/day
- TD50 (rat, strain Fischer 344, males, in feed, site: liver, lesion: hepatocellular adenoma + hepatocellular carcinoma + neoplastic nodule, dosed 100 weeks, study length 100 weeks): 5450 mg/kg/day
- TD50 (rat, strain Fischer 344, males, in feed, site: urinary bladder, lesion: transitional-cell carcinoma, dosed 100 weeks, study length 100 weeks): 299 mg/kg/day

Structure (SMILES): O=NN(CCO)CCO
- carcinogen call (rat, strain F344/DuCrj, males, in drinking water, site: liver, lesion: one or several types, types not named, dosed 40 weeks, study length 78 weeks): negative (inactive)
- TD50 (rat, strain Fischer 344, females, in drinking water, site: esophagus, lesion: papilloma, dosed 55 weeks, study length 105 weeks): 2050 mg/kg/day
- TD50 (rat, strain Fischer 344, females, in drinking water, site: kidney, lesion: one or several types, types not named, dosed 55 weeks, study length 105 weeks): 327 mg/kg/day
- TD50 (rat, strain Fischer 344, females, in drinking water, site: kidney, lesion: several types, types named in the paper, dosed 75 weeks, study length 130 weeks): 42.2 mg/kg/day
- TD50 (rat, strain Fischer 344, females, in drinking water, site: liver, lesion: cholangioadenoma/carcinoma, dosed 75 weeks, study length 130 weeks): 56.8 mg/kg/day
- TD50 (rat, strain Fischer 344, females, in drinking water, site: liver, lesion: cholangiocarcinoma, dosed 55 weeks, study length 105 weeks): 197 mg/kg/day
- TD50 (rat, strain Fischer 344, females, in drinking water, site: liver, lesion: hemangiosarcoma, dosed 50 weeks, study length 120 weeks): 45.4 mg/kg/day
- TD50 (rat, strain Fischer 344, females, in drinking water, site: liver, lesion: hepatocellular carcinoma, dosed 50 weeks, study length 120 weeks): 1.94 mg/kg/day
- TD50 (rat, strain Fischer 344, females, in drinking water, site: liver, lesion: hepatocellular carcinoma, dosed 55 weeks, study length 105 weeks): 3.27 mg/kg/day
- TD50 (rat, strain Fischer 344, females, in drinking water, site: liver, lesion: hepatocellular carcinoma, dosed 75 weeks, study length 130 weeks): 4.05 mg/kg/day
- TD50 (rat, strain Fischer 344, females, in drinking water, site: liver, lesion: neoplastic nodule, dosed 75 weeks, study length 130 weeks): 2.93 mg/kg/day
- TD50 (rat, strain Fischer 344, females, in drinking water, site: liver, lesion: several types, types named in the paper, dosed 75 weeks, study length 130 weeks): 1.9 mg/kg/day
- TD50 (rat, strain Fischer 344, females, in drinking water, site: nasal cavity, lesion: adenocarcinoma, dosed 55 weeks, study length 105 weeks): 44.1 mg/kg/day
- TD50 (rat, strain Fischer 344, females, in drinking water, site: nasal cavity, lesion: olfactory carcinoma, dosed 55 weeks, study length 105 weeks): 128 mg/kg/day
- TD50 (rat, strain Fischer 344, females, in drinking water, site: nasal cavity, lesion: squamous-cell carcinoma, dosed 55 weeks, study length 105 weeks): 4320 mg/kg/day
- TD50 (rat, strain Fischer 344, males, in drinking water, site: esophagus, lesion: carcinoma, dosed 48 weeks, study length 95 weeks): 432 mg/kg/day
- TD50 (rat, strain Fischer 344, males, in drinking water, site: esophagus, lesion: papilloma, dosed 48 weeks, study length 95 weeks): 207 mg/kg/day
- TD50 (rat, strain Fischer 344, males, in drinking water, site: kidney, lesion: one or several types, types not named, dosed 48 weeks, study length 95 weeks): 99.7 mg/kg/day
- TD50 (rat, strain Fischer 344, males, in drinking water, site: kidney, lesion: several types, types named in the paper, dosed 75 weeks, study length 125 weeks): 19 mg/kg/day
- TD50 (rat, strain Fischer 344, males, in drinking water, site: liver, lesion: cholangioadenoma/carcinoma, dosed 75 weeks, study length 125 weeks): 38.6 mg/kg/day
- TD50 (rat, strain Fischer 344, males, in drinking water, site: liver, lesion: cholangiocarcinoma, dosed 48 weeks, study length 95 weeks): 23.9 mg/kg/day
- TD50 (rat, strain Fischer 344, males, in drinking water, site: liver, lesion: hepatocellular carcinoma, dosed 48 weeks, study length 95 weeks): 2.77 mg/kg/day
- TD50 (rat, strain Fischer 344, males, in drinking water, site: liver, lesion: hepatocellular carcinoma, dosed 75 weeks, study length 125 weeks): 9.03 mg/kg/day
- TD50 (rat, strain Fischer 344, males, in drinking water, site: liver, lesion: neoplastic nodule, dosed 75 weeks, study length 125 weeks): 3.93 mg/kg/day
- TD50 (rat, strain Fischer 344, males, in drinking water, site: liver, lesion: several types, types named in the paper, dosed 75 weeks, study length 125 weeks): 2.84 mg/kg/day
- TD50 (rat, strain Fischer 344, males, in drinking water, site: nasal cavity, lesion: adenocarcinoma, dosed 48 weeks, study length 95 weeks): 15.5 mg/kg/day
- TD50 (rat, strain Fischer 344, males, in drinking water, site: nasal cavity, lesion: olfactory carcinoma, dosed 48 weeks, study length 95 weeks): 50.4 mg/kg/day
- TD50 (rat, strain Fischer 344, males, in drinking water, site: nasal cavity, lesion: squamous-cell carcinoma, dosed 48 weeks, study length 95 weeks): 280 mg/kg/day
- TD50 (rat, strain Sprague-Dawley, males, in drinking water, site: all sites, lesion: one or several types, types not named, dosed 162 weeks, study length 167 weeks): 55.6 mg/kg/day
- TD50 (rat, strain Sprague-Dawley, males, in drinking water, site: any site (literature study), lesion: benign tumor, dosed 162 weeks, study length 167 weeks): 7.93 mg/kg/day
- TD50 (rat, strain Sprague-Dawley, males, in drinking water, site: any site (literature study), lesion: malignant tumor, dosed 162 weeks, study length 167 weeks): 23.5 mg/kg/day
- TD50 (rat, strain Sprague-Dawley, males, in drinking water, site: gastrointestinal tract, lesion: several types, types named in the paper, dosed 162 weeks, study length 167 weeks): 143 mg/kg/day
- TD50 (rat, strain Sprague-Dawley, males, in drinking water, site: liver, lesion: cholangiocarcinoma, ductular, dosed 118 weeks, study length 147 weeks): 10700 mg/kg/day
- TD50 (rat, strain Sprague-Dawley, males, in drinking water, site: liver, lesion: hemangioendothelioma, benign, dosed 162 weeks, study length 167 weeks): 126 mg/kg/day
- TD50 (rat, strain Sprague-Dawley, males, in drinking water, site: liver, lesion: hepatocellular adenocarcinoma, dosed 118 weeks, study length 147 weeks): 9.51 mg/kg/day
- TD50 (rat, strain Sprague-Dawley, males, in drinking water, site: liver, lesion: hepatocellular adenoma, dosed 162 weeks, study length 167 weeks): 347 mg/kg/day
- TD50 (rat, strain Sprague-Dawley, males, in drinking water, site: liver, lesion: hepatocellular carcinoma, dosed 162 weeks, study length 167 weeks): 70.4 mg/kg/day
- TD50 (rat, strain Sprague-Dawley, males, in drinking water, site: liver, lesion: several types, types named in the paper, dosed 118 weeks, study length 147 weeks): 8.23 mg/kg/day
- TD50 (rat, strain Sprague-Dawley, males, in drinking water, site: liver, lesion: several types, types named in the paper, dosed 162 weeks, study length 167 weeks): 38.4 mg/kg/day
- TD50 (rat, strain Sprague-Dawley, males, in drinking water, site: nasal cavity, lesion: olfactory neuroepithelioma, dosed 118 weeks, study length 147 weeks): 679 mg/kg/day
- TD50 (rat, strain Sprague-Dawley, males, in drinking water, site: nasal cavity, lesion: several types, types named in the paper, dosed 118 weeks, study length 147 weeks): 168 mg/kg/day
- TD50 (rat, strain Sprague-Dawley, males, in drinking water, site: nasal cavity, lesion: squamous-cell carcinoma, dosed 118 weeks, study length 147 weeks): 954 mg/kg/day
- TD50 (rat, strain Sprague-Dawley, males, in drinking water, site: nervous system, lesion: one or several types, types not named, dosed 162 weeks, study length 167 weeks): 42.5 mg/kg/day

Structure (SMILES): Oc1c(Cl)cc(Cl)cc1Sc1cc(Cl)cc(Cl)c1O
- carcinogen call (mouse, strain B6AKF1, females, oral dosing, site: liver, lesion: hepatoma, dosed 76 weeks, study length 76 weeks): negative (inactive)
- TD50 [1]: 100 mg/kg/day
- carcinogen call [1]: negative (inactive)
- carcinogen call (mouse, strain B6AKF1, males, oral dosing, site: any site (literature study), lesion: several types, types named in the paper, dosed 76 weeks, study length 76 weeks): negative (inactive)
- carcinogen call (mouse, strain B6AKF1, males, oral dosing, site: liver, lesion: hepatoma, dosed 76 weeks, study length 76 weeks): negative (inactive)
- carcinogen call (mouse, strain B6AKF1, males, oral dosing, site: lung, lesion: adenoma, dosed 76 weeks, study length 76 weeks): negative (inactive)
- carcinogen call (mouse, strain B6C3F1, females, oral dosing, site: any site (literature study), lesion: one or several types, types not named, dosed 76 weeks, study length 76 weeks): negative (inactive)
- TD50 (mouse, strain B6C3F1, females, oral dosing, site: any site (literature study), lesion: several types, types named in the paper, dosed 76 weeks, study length 76 weeks): 43 mg/kg/day
- carcinogen call (mouse, strain B6C3F1, females, oral dosing, site: liver, lesion: hepatoma, dosed 76 weeks, study length 76 weeks): negative (inactive)
- carcinogen call (mouse, strain B6C3F1, females, oral dosing, site: lung, lesion: several types, types named in the paper, dosed 76 weeks, study length 76 weeks): negative (inactive)
- TD50 (mouse, strain B6C3F1, males, oral dosing, site: liver, lesion: angioma, dosed 76 weeks, study length 76 weeks): 88.2 mg/kg/day
- TD50 (mouse, strain B6C3F1, males, oral dosing, site: liver, lesion: several types, types named in the paper, dosed 76 weeks, study length 76 weeks): 2.28 mg/kg/day (inactive)
- TD50 [2]: 88.2 mg/kg/day
- carcinogen call (mouse, strain B6C3F1, males, oral dosing, site: lung, lesion: several types, types named in the paper, dosed 76 weeks, study length 76 weeks): negative (inactive)

Structure (SMILES): C1CNCCN1
- TD50 (rat, strain MRC, females, in drinking water, site: any site (literature study), lesion: several types, types named in the paper, dosed 75 weeks, study length 104 weeks): 11.2 mg/kg/day

Structure (SMILES): O=C1c2ccccc2C(=O)c2c(O)cccc21
- TD50 (rat, strain ACI/n, males, in feed, site: cecum, lesion: adenocarcinoma, dosed 68 weeks, study length 68 weeks): 619 mg/kg/day
- TD50 (rat, strain ACI/n, males, in feed, site: cecum, lesion: adenoma, dosed 68 weeks, study length 68 weeks): 277 mg/kg/day
- TD50 (rat, strain ACI/n, males, in feed, site: colon, lesion: adenocarcinoma, dosed 68 weeks, study length 68 weeks): 246 mg/kg/day
- TD50 (rat, strain ACI/n, males, in feed, site: colon, lesion: adenoma, dosed 68 weeks, study length 68 weeks): 219 mg/kg/day
- TD50 (rat, strain ACI/n, males, in feed, site: forestomach, lesion: papilloma, dosed 68 weeks, study length 68 weeks): 789 mg/kg/day
- TD50 (rat, strain ACI/n, males, in feed, site: large intestine, lesion: several types, types named in the paper, dosed 68 weeks, study length 68 weeks): 59.2 mg/kg/day
- TD50 (rat, strain ACI/n, males, in feed, site: liver, lesion: hepatocellular carcinoma, dosed 68 weeks, study length 68 weeks): 789 mg/kg/day
- TD50 (rat, strain ACI/n, males, in feed, site: liver, lesion: neoplastic nodule, dosed 68 weeks, study length 68 weeks): 219 mg/kg/day
- TD50 (rat, strain ACI/n, males, in feed, site: liver, lesion: several types, types named in the paper, dosed 68 weeks, study length 68 weeks): 219 mg/kg/day
- TD50 (rat, strain ACI/n, males, in feed, site: stomach, glandular, lesion: adenoma, dosed 68 weeks, study length 68 weeks): 3340 mg/kg/day
- TD50 (rat, strain ACI/n, males, in feed, site: stomach, lesion: several types, types named in the paper, dosed 68 weeks, study length 68 weeks): 619 mg/kg/day
- TD50 (rat, strain Fischer 344, males, in feed, site: cecum, lesion: adenocarcinoma, dosed 78 weeks, study length 78 weeks): 432 mg/kg/day
- TD50 (rat, strain Fischer 344, males, in feed, site: colon, lesion: adenocarcinoma, dosed 78 weeks, study length 78 weeks): 432 mg/kg/day
- TD50 (rat, strain Fischer 344, males, in feed, site: colon, lesion: several types, types named in the paper, dosed 78 weeks, study length 78 weeks): 432 mg/kg/day
- TD50 (rat, strain Fischer 344, males, in feed, site: large intestine, lesion: several types, types named in the paper, dosed 78 weeks, study length 78 weeks): 222 mg/kg/day
